One data set has as its system male Wistar rats. The data set is described as follows: Systemic infusions in anaesthetized rat (haemodynamics, echocardiography). The data set is classed as in vivo. Here is the method:
Blood pressure (BP) was monitored continuously via an intra-arterial line and echocardiography was used after each bolus to determine changes in heart […], stroke volume, cardiac output (from peak velocity and velocity time interval) and respiratory rate. Rectal temperature was monitored throughout. BP was analyzed using absolute change in mean BP from the baseline taken just before the bolus and area under the curve analysis.

The subject of the next data set is human hand vein. The data set is described as follows: Aellig hand vein technique study in human volunteers. It is filed as in vivo. The source says: All volunteers (n=12 forearm plethysmography, n=10 hand vein studies) gave written informed consent, and studies adhered to the principles of the Declaration of Helsinki and were approved by the National Research Ethics Service Committee East of England–Cambridge Central (REC 11/EE/0305).

Data set [1] has as its target T1, human apelin receptor (Homo sapiens, UniProt P35414).
T1 sequence (P35414 1-380): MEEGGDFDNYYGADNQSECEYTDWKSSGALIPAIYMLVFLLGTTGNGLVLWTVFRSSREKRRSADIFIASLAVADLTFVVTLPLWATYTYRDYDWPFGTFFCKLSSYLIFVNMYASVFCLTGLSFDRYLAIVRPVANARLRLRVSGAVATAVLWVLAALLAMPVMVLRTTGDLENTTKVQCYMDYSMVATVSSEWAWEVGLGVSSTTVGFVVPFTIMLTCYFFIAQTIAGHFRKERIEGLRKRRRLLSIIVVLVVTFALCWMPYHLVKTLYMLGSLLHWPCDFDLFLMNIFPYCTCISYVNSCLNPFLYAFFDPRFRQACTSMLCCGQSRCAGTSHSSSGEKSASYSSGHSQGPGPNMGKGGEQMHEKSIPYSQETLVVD
The data set is described as follows: Competition binding in homogenate of human left ventricle. The note with it: competition for 0.1 nmol/L [Glp65,Nle75,Tyr77][125I]apelin-13; human heart (left ventricle homogenate); n=3.

The target in data set [2] is T1, human apelin receptor. Put plainly: Competition binding in CHO-K1-APJ cells. The note with it: competition for [Glp65,Nle75,Tyr77][125I]apelin-13 binding; human apelin receptors in CHO-K1 cells. The protocol: Initial assays were performed in cells expressing the human apelin receptor (CHO-K1-APJ cells; Cerep, Celle L’Evescault, France). […] Data were analyzed (KELL package; Biosoft, UK) to obtain the dissociation constant KD (concentration of ligand occupying 50% of receptors).

Data set [3] is described as follows: In vivo plasma half-life of apelin peptides. The note with it: rat, iv. An excerpt:
Rats (230–260 g), anaesthetized with 2% isoflurane, were given a single intravenous bolus (600 nmol) of apelin or MM07 (both n=3).

Positions of bridges follow the written chain, without caps; N, C: chain ends. Residues, ends and D or L forms follow the SMILES beside them.

In the case of `CSCC[C@H](NC(=O)[C@@H]1CCCN1C(=O)CNC(=O)[C@H](CCCCN)NC(=O)[C@H](Cc1cnc[nH]1)NC(=O)[C@H](CO)NC(=O)[C@H](CC(C)C)NC(=O)[C@H](CCCNC(=N)N)NC(=O)[C@@H]1CCCN1C(=O)[C@H](CCCNC(=N)N)NC(=O)[C@@H]1CCC(=O)N1)C(=O)N1CCC[C@H]1C(=O)N[C@@H](Cc1ccccc1)C(=O)O` [[Pyr^1]apelin-13, reference compound], the respiratory rate entry in the data set with male Wistar rats (incremental bolus doses 1-300 nmol) is given as “Neither peptide caused a significant change”. Besides, the “adverse events in hand vein study” value with human hand vein (human volunteers) is recorded as “no adverse events observed”.

Usually Kd stands for the concentration at which binding is half-saturated. Low values mean a tighter complex, high ones a looser complex. The term half-life denotes the time in which the quantity being followed falls by half. A high value points to slow loss. As to `CSCC[C@H](NC(=O)[C@@H]1CCCN1C(=O)CNC(=O)[C@H](CCCCN)NC(=O)[C@H](Cc1cnc[nH]1)NC(=O)[C@@H]1CSSC[C@H](N)C(=O)N[C@@H](CCCNC(=N)N)C(=O)N2CCC[C@H]2C(=O)N[C@@H](CCCNC(=N)N)C(=O)N[C@@H](CC(C)C)C(=O)N1)C(=O)N1CCC[C@H]1C(=O)N[C@@H](Cc1ccccc1)C(=O)O` [MM07] (H-CRPRLCHKGPMPF-OH; disulfide 1-6), the results for the Kd at human apelin receptor [1] and on human apelin receptor [2] were 172 nM and 300 nM, respectively. In data set [3], the half-life worked out at 17.4 ± 0.4 min. The “adverse events in hand vein study” value in the data set on human hand vein (human, in vivo) is recorded as “no adverse events observed”.

For the molecule `CC(=O)NC(C(=O)O)C(C)(C)SN=O` (racemic) [SNAP, S-Nitroso-N-acetyl-D,L-penicillamine], the “BP response to SNAP” value in the data set on male Wistar rats (given after peptide doses, both peptide-treated groups) is listed as “profound fall in BP”.

(Values after article PMC4354462, “Design, Characterization, and First-In-Human Study of the Vascular Actions of a Novel Biased Apelin Receptor Agonist” (Hypertension, 2015).)
